The target of test [1] is Human plasma kallikrein (Homo sapiens (Human), UniProt P03952). The test is described as follows: Kallikrein Assay (fluorogenic substrate Acetyl-K-P-R-AFC). Type of test: biochemical. To be noted: Plasma Kallikrein (PKal). The method in brief: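 Ki is derived from IC50 with the Cheng-Prusoff equation, and IC50 from the inflection point of a four-parameter logistic curve. The rate of AFC release is read with 0.5 nM purified enzyme and […] substrate at room temperature or 37 °C.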
Chain of Human plasma kallikrein (P03952 391-638): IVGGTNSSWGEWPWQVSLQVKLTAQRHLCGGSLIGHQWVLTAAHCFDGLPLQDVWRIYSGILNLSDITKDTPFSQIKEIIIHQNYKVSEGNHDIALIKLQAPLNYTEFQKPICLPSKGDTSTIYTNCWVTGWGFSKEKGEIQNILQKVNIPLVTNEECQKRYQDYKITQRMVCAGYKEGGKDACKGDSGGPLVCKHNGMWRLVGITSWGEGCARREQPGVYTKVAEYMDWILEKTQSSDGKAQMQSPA
Chain of Human plasma kallikrein (P03952 20-390 partner): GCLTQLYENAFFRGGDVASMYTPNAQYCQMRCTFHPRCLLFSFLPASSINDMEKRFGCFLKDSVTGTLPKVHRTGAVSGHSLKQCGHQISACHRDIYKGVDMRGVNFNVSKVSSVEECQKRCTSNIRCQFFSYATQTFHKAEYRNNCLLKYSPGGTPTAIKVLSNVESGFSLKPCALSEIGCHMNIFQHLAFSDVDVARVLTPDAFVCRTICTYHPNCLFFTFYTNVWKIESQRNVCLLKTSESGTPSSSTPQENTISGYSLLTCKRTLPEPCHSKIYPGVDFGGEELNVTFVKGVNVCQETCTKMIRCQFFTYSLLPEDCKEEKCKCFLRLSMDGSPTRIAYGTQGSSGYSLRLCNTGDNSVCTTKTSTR

Test [2] deals with human Factor XIa (Homo sapiens (Human), UniProt P03951). Put plainly: Factor XIa Assay (fluorogenic substrate GPR-AFC). In kind it is biochemical. To be noted: Factor XIa (FXIa).
Chain of human Factor XIa (P03951 388-625 limits assumed): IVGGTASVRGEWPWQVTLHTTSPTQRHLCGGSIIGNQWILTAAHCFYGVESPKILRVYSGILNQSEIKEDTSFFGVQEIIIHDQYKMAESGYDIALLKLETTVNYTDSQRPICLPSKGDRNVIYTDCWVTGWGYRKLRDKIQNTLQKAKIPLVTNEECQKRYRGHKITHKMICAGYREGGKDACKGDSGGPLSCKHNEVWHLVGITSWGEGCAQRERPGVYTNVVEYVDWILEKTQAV
Chain of human Factor XIa (P03951 19-387 partner limits assumed): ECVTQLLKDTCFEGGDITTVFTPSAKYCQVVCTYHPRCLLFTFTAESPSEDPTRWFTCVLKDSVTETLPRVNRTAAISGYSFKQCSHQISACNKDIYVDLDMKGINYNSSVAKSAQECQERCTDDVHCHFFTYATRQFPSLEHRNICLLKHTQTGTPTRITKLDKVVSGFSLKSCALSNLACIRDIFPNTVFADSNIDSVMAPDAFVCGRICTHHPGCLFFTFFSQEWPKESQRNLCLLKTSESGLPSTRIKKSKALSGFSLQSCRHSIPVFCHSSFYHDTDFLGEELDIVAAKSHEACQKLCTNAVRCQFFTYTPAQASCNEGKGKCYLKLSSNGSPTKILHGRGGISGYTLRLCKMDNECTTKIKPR

As usually defined, the IC50 is the midpoint of a concentration-inhibition curve. High values mean lower potency, low ones higher potency.

In the case of `Cc1ncc(-c2c(OC(F)F)ccc(Cl)c2F)nc1C(=O)Nc1cnn(C(C)c2cnc(N3C[C@H]4C[C@H]4C3=O)c(F)c2C)c1` (single isomer, unassigned) [Example 129, 6-(3-Chloro-6-(difluoromethoxy)-2-fluorophenyl)-N-(1-((S or R)-1-(5-fluoro-4-methyl-6-((1R,5S)-2-oxo-3-azabicyclo[3.1.0]hexan-3-yl)pyridin-3-yl)ethyl)-IH-pyrazol-4-yl)-3-methylpyrazine-2-carboxamide], the results for the half-maximal inhibitory concentration (IC50) in test [1] and in test [2] were 4.3 nM and 3210 nM, respectively.

Take `Cc1ncc(-c2c(OC(F)F)ccc(Cl)c2F)nc1C(=O)Nc1cnn(C(C)c2cnc(N3C[C@H]4C[C@H]4C3=O)c(F)c2C)c1` (single isomer, unassigned) [Example 130, 6-(3-Chloro-6-(difluoromethoxy)-2-fluorophenyl)-N-(1-((R or S)-1-(5-fluoro-4-methyl-6-((1R,5S)-2-oxo-3-azabicyclo[3.1.0]hexan-3-yl)pyridin-3-yl)ethyl)-1H-pyrazol-4-yl)-3-methylpyrazine-2-carboxamide]: the values for the 50% inhibitory concentration (IC50) in test [1] and in test [2] were 0.8 nM and 549 nM, respectively.

`Cc1cc(C(C)n2cc(NC(=O)c3nc(-c4c(OC(F)F)ccc(Cl)c4F)cnc3C)cn2)cnc1N1C[C@H]2C[C@H]2C1=O` (single isomer, unassigned) [Example 131, 6-(3-Chloro-6-(difluoromethoxy)-2-fluorophenyl)-3-methyl-N-(1-((S or R)-1-(5-methyl-6-((1R,5S)-2-oxo-3-azabicyclo[3.1.0]hexan-3-yl)pyridin-3-yl)ethyl)-1H-pyrazol-4-yl)pyrazine-2-carboxamide]: the concentration for half-maximal inhibition (IC50) in test [1] was determined as 0.5 nM; in test [2] it was 545 nM.

Take `Cc1cc(C(C)n2cc(NC(=O)c3nc(-c4c(OC(F)F)ccc(Cl)c4F)cnc3C)cn2)cnc1N1C[C@H]2C[C@H]2C1=O` (single isomer, unassigned) [Example 132, 6-(3-Chloro-6-(difluoromethoxy)-2-fluorophenyl)-3-methyl-N-(1-((R or S)-1-(5-methyl-6-((1R,5S)-2-oxo-3-azabicyclo[3.1.0]hexan-3-yl)pyridin-3-yl)ethyl)-1H-pyrazol-4-yl)pyrazine-2-carboxamide]: the figures for the half-maximal inhibitory concentration (IC50) in test [1] and in test [2] were 0.6 nM and 139 nM, respectively.

With `Cc1c(C(C)n2cc(NC(=O)c3cncc(-c4c(OC(F)F)ccc(Cl)c4F)n3)cn2)cnc(N2C[C@H]3C[C@H]3C2=O)c1F` (single isomer, unassigned) [Example 133, 6-(3-Chloro-6-(difluoromethoxy)-2-fluorophenyl)-N-(1-((S or R)-1-(5-fluoro-4-methyl-6-((1R,5S)-2-oxo-3-azabicyclo[3.1.0]hexan-3-yl)pyridin-3-yl)ethyl)-1i-pyrazol-4-yl)pyrazine-2-carboxamide], the IC50 stood at 0.6 nM in test [1] and 510 nM in test [2].

In the case of `Cc1c(C(C)n2cc(NC(=O)c3cncc(-c4c(OC(F)F)ccc(Cl)c4F)n3)cn2)cnc(N2C[C@H]3C[C@H]3C2=O)c1F` (single isomer, unassigned) [Example 134, 6-(3-Chloro-6-(difluoromethoxy)-2-fluorophenyl)-N-(1-((R or S)-1-(5-fluoro-4-methyl-6-((1R,5S)-2-oxo-3-azabicyclo[3.1.0]hexan-3-yl)pyridin-3-yl)ethyl)-1H-pyrazol-4-yl)pyrazine-2-carboxamide], the IC50 in test [1] was 13.9 nM; in test [2], 5570 nM.

Consider `Cc1ncc(-c2c(C#N)ccc(Cl)c2F)nc1C(=O)Nc1cnn(C(C)c2cnc(N3C[C@H]4C[C@H]4C3=O)c(F)c2C)c1` (single isomer, unassigned) [Example 135, 6-(3-Chloro-6-cyano-2-fluorophenyl)-N-(1-((S or R)-1-(5-fluoro-4-methyl-6-((1R,5S)-2-oxo-3-azabicyclo[3.1.0]hexan-3-yl)pyridin-3-yl)ethyl)-1H-pyrazol-4-yl)-3-methylpyrazine-2-carboxamide], for which the IC50 in test [1] is 5.4 nM; in test [2], 4880 nM.

Take `Cc1ncc(-c2c(C#N)ccc(Cl)c2F)nc1C(=O)Nc1cnn(C(C)c2cnc(N3C[C@H]4C[C@H]4C3=O)c(F)c2C)c1` (single isomer, unassigned) [Example 136, 6-(3-Chloro-6-cyano-2-fluorophenyl)-N-(1-((R or S)-1-(5-fluoro-4-methyl-6-((1R,5S)-2-oxo-3-azabicyclo[3.1.0]hexan-3-yl)pyridin-3-yl)ethyl)-1H-pyrazol-4-yl)-3-methylpyrazine-2-carboxamide]: the IC50 in test [1] came to 0.2 nM; in test [2], 591 nM.

As to `Cc1ncc(-c2c(C(F)F)ccc(Cl)c2F)nc1C(=O)Nc1cnn(C(C)c2ncc(N3C[C@H]4C[C@H]4C3=O)cc2F)c1` (single isomer, unassigned) [Example 137, 6-(3-Chloro-6-(difluoromethyl)-2-fluorophenyl)-N-(1-((S or R)-1-(3-fluoro-5-((1R,5S)-2-oxo-3-azabicyclo[3.1.0]hexan-3-yl)pyridin-2-yl)ethyl)-1H-pyrazol-4-yl)-3-methylpyrazine-2-carboxamide], the IC50 in test [1] was 7.7 nM; in test [2], greater than 10000 nM.

On to `Cc1cc(C(C)n2cc(NC(=O)c3nc(-c4c(C#N)ccc(Cl)c4F)cnc3C)cn2)cnc1N1C[C@H]2C[C@H]2C1=O` (single isomer, unassigned) [Example 139, 6-(3-Chloro-6-cyano-2-fluorophenyl)-3-methyl-N-(1-((S or R)-1-(5-methyl-6-((1R,5S)-2-oxo-3-azabicyclo[3.1.0]hexan-3-yl)pyridin-3-yl)ethyl)-1H-pyrazol-4-yl)pyrazine-2-carboxamide], for which the IC50 in test [1] amounted to 0.9 nM; in test [2] it was 282 nM.

As to `Cc1cc(C(C)n2cc(NC(=O)c3nc(-c4c(C#N)ccc(Cl)c4F)cnc3C)cn2)cnc1N1C[C@H]2C[C@H]2C1=O` (single isomer, unassigned) [Example 140, 6-(3-Chloro-6-cyano-2-fluorophenyl)-3-methyl-N-(1-((R or S)-1-(5-methyl-6-((IR,5S)-2-oxo-3-azabicyclo[3.1.0]hexan-3-yl)pyridin-3-yl)ethyl)-1H-pyrazol-4-yl)pyrazine-2-carboxamide], the IC50 in test [1] is 0.6 nM; in test [2], 972 nM.

On to `CC(c1cnc(N2C[C@H]3C[C@H]3C2=O)c2c1CCC2)n1cc(NC(=O)c2cncc(-c3c(C(F)F)ccc(Cl)c3F)n2)cn1` (single isomer, unassigned) [Example 141, 6-(3-Chloro-6-(difluoromethyl)-2-fluorophenyl)-N-(1-((S or R)-1-(1-((1R,5S)-2-oxo-3-azabicyclo[3.1.0]hexan-3-yl)-6,7-dihydro-5H-cyclopenta[c]pyridin-4-yl)ethyl)-1H-pyrazol-4-yl)pyrazine-2-carboxamide], for which the IC50 in test [1] is 1.1 nM; in test [2], 906 nM.

For the molecule `CC(c1cnc(N2C[C@H]3C[C@H]3C2=O)c2c1CCC2)n1cc(NC(=O)c2cncc(-c3c(C(F)F)ccc(Cl)c3F)n2)cn1` (single isomer, unassigned) [Example 142, 6-(3-Chloro-6-(difluoromethyl)-2-fluorophenyl)-N-(1-((R or S)-1-(1-((1R,5S)-2-oxo-3-azabicyclo[3.1.0]hexan-3-yl)-6,7-dihydro-5H-cyclopenta[c]pyridin-4-yl)ethyl)-1H-pyrazol-4-yl)pyrazine-2-carboxamide], the IC50 was found to be 0.6 nM in test [1] and 373 nM in test [2].

These data come from patent US20230286958A1, “PLASMA KALLIKREIN INHIBITORS” (Merck Sharp & Dohme LLC, priority 2020, published 2023).
